From US10172916B2, “Methods of treating heart failure with agonists of hypocretin receptor 2” (The Board of Trustees of the Leland Stanford Junior …, priority 2013, dated 2019) come the findings set out here.

Ends that are not written are not given here.

In the assay the test system is wild-type C57BL/6 mice stressed with angiotensin II+isoproterenol infusion (heart failure model). Briefly: Orexin A minipump infusion in mice stressed with angiotensin II + isoproterenol, echocardiography. The format is in vivo, mouse. The method, then: Finally, to assess the potential of HCRTR2 as a novel therapeutic target for heart failure, wild-type mice were infused with saline (n=6) or the HCRTR2 agonist orexin A (n=7) for four weeks. At week two, all mice underwent infusion of angiotensin II and isoproterenol, neurohormones that mimic human heart failure. Echocardiography was performed blinded to drug infusion status at baseline, 2, 3 and 4 weeks (FIG. 3H).
Experimental mice were anesthetized with 1.5% isoflurane by a facemask. The Alzet osmotic minipumps (Model 2002 or 2004) from the Alzet Corporation (Cupertino, Calif., USA) were implanted subcutaneously in the back of mice, posterior to the scapulae. 14-week-old C57BL/6 mice were treated with either saline or orexin A (50 μg/kg/day) infusions using an Alzet (Cupertino, Calif.) osmotic minipump model 2004 (200 μl reservoir, 28-day release at 0.25 μl/hr) for a total of 4 weeks. At week 2, all mice were treated with angiotensin II (1.4 mg/kg/day) plus isoproterenol (15 mg/kg/day) infusion using an additional Alzet osmotic minipump, model 2002 (200 μl reservoir, 14-day release at 0.5 μl/hr) for two weeks, starting 2 weeks after initiation of the saline or orexin A infusion. Mice had echocardiography performed at baseline and weeks 2, 3 and 4.
For noninvasive echocardiography, mice were anesthetized with isoflurane via nose cone (maintenance: 1.5% isoflurane mixed with 1 L/minute 100% medical oxygen to obtain heart rate of 450±50 beats per minute). Mouse body temperature was monitored with a rectal thermometer. […]
Two-dimensional imaging (B-mode) was used to obtain a view of left and right ventricular movement during diastole and systole along the parasternal short axis. […] Early (E) wave was measured as the peak velocity during filling of the ventricle, and atrial (A) wave was measured as the peak velocity during atrial contraction, at the end of diastole. […] All data and images were saved and analyzed using a Vevo 2100 advanced cardiovascular package software with a semi-automated quantification of cardiac function (V 1.4.0 VisualSonics, Toronto, ON, Canada).

Regarding “orexin A (QPLPDCCRQKTCSCRLYELLHGAGNHAAGILTL; ends and bridges not checked; cysteine pairing not given here; UniProt O43612 34-66, looked up) [HCRTR2 agonist]”, under “WT mice, orexin A 50 μg/kg/day infusion for 4 weeks, angiotensin II+isoproterenol during latter 2 weeks, week 4, n=7, p=0.045 vs saline”, the “Ejection Fraction” value is recorded as 56.6%+/−4.5. The “heart function in a mouse model of heart failure” value (summary statement) is recorded as “successful in rescuing heart function”. For the setting “wild-type mice, four weeks infusion, angiotensin II and isoproterenol from week two, p=0.045”, the “systolic function compared to saline controls” value is “better systolic function compared to controls”.
